system: parasites (ring stage parasites, parasite growth); experiment: Parasite LDH growth assay (Parasite Assay), antiparasite potency; assay type: cell-based; conditions: 72 h, 72 hours growth, LDH readout; Table 3
Description: Assessing Antiparasite Potency in a Parasite LDH Growth Assay (Parasite Assay) The parasite stock was maintained at […] in RPMI-Hepes media buffered with sodium bicarbonate and supplemented with […]. […] On the day of assay set up, a blood smear of the parasite culture was Giemsa stained and counted. The parasitemia was adjusted to 0.7% rings and the haematocrit was diluted to 2% in RPMI-Hepes media buffered with sodium bicarbonate and supplemented with 500 heat inactivated human serum and 0.5% albumax. 30 ul of diluted parasites are then added into 10 ul of media+compound in pre-prepared Greiner TC assay plates. Parasite assay plates were placed in gassed humidified boxes in single layer and allowed to incubate at 37° C. for 72 hours. After 72 hours growth, assay plates are sealed with parafilm and frozen flat, in single file at −80° C. overnight. On the following day, assay plates are allowed to thaw at room temperature for 4 hours to which an LDH assay is performed to measure parasite growth.

Question: For `COCC[C@H]([C@@H]1C[C@H]1C(=O)N[C@H]1CC(C)(C)Oc2c(F)cc(F)cc21)N1C(=N)NC(C)(C)CC1=O` [Example 113B], which EC50 is on record?
Answer: 7.5 nM

Question: With `COCC[C@H]([C@@H]1C[C@H]1C(=O)N[C@@H]1CC(C)(C)Oc2cc(C)c(Cl)cc21)N1C(=N)NC(C)(C)CC1=O` [Example 137A] as the compound, how does the EC50 read?
Answer: 12 nM

Question: How did the EC50 turn out when `COCC[C@H]([C@@H]1C[C@H]1C(=O)N[C@H]1CC(C)(C)Oc2cc(OC)ccc21)N1C(=N)NC(C)(C)CC1=O` [Example 70B] was run?
Answer: 19 nM

Question: `COCC[C@H]([C@@H]1C[C@H]1C(=O)N[C@@H]1CC(C)(C)Oc2cc(OC)ccc21)N1C(=N)NC(C)(C)CC1=O` [Example 70A] was tested. Which EC50 did it give?
Answer: 77 nM

Question: For `COCC[C@H]([C@@H]1C[C@H]1C(=O)N[C@@H]1CC(C)(C)Oc2cc(OC(F)(F)F)ccc21)N1C(=N)NC(C)(C)CC1=O` [Example 134A], which EC50 is on record?
Answer: 71 nM

Question: Which EC50 does the source give for `CC1(C)CC(=O)N([C@H](c2cccnc2)[C@@H]2C[C@H]2C(=O)N[C@@H]2CC(C)(C)Oc3c(C(F)(F)F)ccc(F)c32)C(=N)N1` [Example 115A] here?
Answer: 6.6 nM

Question: How did the EC50 turn out when `CC1(C)CC(=O)N(C[C@@H]2C[C@H]2C(=O)N[C@H]2CC(C)(C)Oc3c(C(F)(F)F)ccc(F)c32)C(=N)N1` [Example 99] was run?
Answer: 130 nM

Question: For `COc1cncc([C@H]([C@@H]2C[C@H]2C(=O)N[C@@H]2c3ccccc3OC(C)(C)[C@H]2O)N2C(=N)NC(C)(C)CC2=O)c1` [Example 42], which EC50 is on record?
Answer: 18.4 nM

Question: `CC1(C)CC(=O)N([C@H](c2cccnc2)[C@@H]2C[C@H]2C(=O)N[C@H]2CC(C)(C)Oc3cc(Cl)ccc32)C(=N)N1` [Example 91A] was tested. Which EC50 did it give?
Answer: 0.8 nM

Question: How did the EC50 turn out when `CC1(C)CC(=O)N([C@H](c2cccnc2)[C@@H]2C[C@H]2C(=O)NC2CC(C)(C)Oc3c(F)cccc32)C(=N)N1` (stereo partly drawn) [Example 93A] was run?
Answer: 3.3 nM

Question: For `CC1(C)CC(=O)N(C(c2cccnc2)[C@H]2[C@H](C(=O)N[C@H]3CC(C)(C)Oc4ccccc43)C2(C)C)C(=N)N1` (stereo partly drawn) [Example 49A], which EC50 is on record?
Answer: 20 nM

Question: For `CCC1(CC)CC(=O)N(C[C@H]2C(C(=O)N[C@@H]3c4ccccc4OC(C)(C)[C@H]3O)C2(F)F)C(=N)N1` (stereo partly drawn) [Example 18A], which EC50 is on record?
Answer: 39 nM

Question: With `CC1(C)CC(=O)N([C@H](c2cccnc2)[C@@H]2C[C@H]2C(=O)NC2CC(C)(C)Oc3c(Cl)cccc32)C(=N)N1` (stereo partly drawn) [Example 121A] as the compound, how does the EC50 read?
Answer: 2.5 nM

Question: Which EC50 does the source give for `CCC1(CC)CC(=O)N(C[C@@H]2C[C@H]2C(=O)N[C@@H]2C[C@@H](C(F)(F)F)Oc3ccccc32)C(=N)N1` [Example 8B] here?
Answer: 5.3 nM

Question: Which EC50 does the source give for `CCC1(CC)CC(=O)N(C[C@@H]2C[C@H]2C(=O)N[C@H]2CC(C)(C)Oc3ccccc32)C(=N)N1` [Example 5] here?
Answer: 49 nM

Question: With `CC1(C)CC(=O)N([C@H](c2cccnc2)[C@@H]2C[C@H]2C(=O)NC2CC(C)(C)Oc3c(Cl)cc(Cl)cc32)C(=N)N1` (stereo partly drawn) [Example 94A] as the compound, how does the EC50 read?
Answer: 0.9 nM

Question: For `CCC1(C)CC(NC(=O)[C@@H]2C[C@H]2[C@@H](CCOC)N2C(=N)NC(C)(C)CC2=O)c2ccccc2O1` (stereo partly drawn) [Example 75A], which EC50 is on record?
Answer: 8.2 nM

Question: Which EC50 does the source give for `COCC[C@H]([C@@H]1C[C@H]1C(=O)N[C@@H]1CC(C)(C)Oc2cc(C)ccc21)N1C(=N)NC(C)(C)CC1=O` [Example 83B] here?
Answer: 26 nM

Question: With `CC1(C)CC(=O)N([C@@H](c2cncc(Cl)c2)[C@@H]2C[C@H]2C(=O)N[C@H]2CC(C)(C)Oc3ccccc32)C(=N)N1` [Example 58A] as the compound, how does the EC50 read?
Answer: 210 nM

Question: `CC1(C)CC(=O)N(C[C@@H]2C[C@H]2C(=O)N[C@H]2CC(C)(C)Oc3cc(Cl)ccc32)C(=N)N1` [Example 90] was tested. Which EC50 did it give?
Answer: 225 nM

Question: `COCC[C@H]([C@@H]1C[C@H]1C(=O)N[C@H]1CC(C)(C)Oc2ccccc21)N1C(=N)N[C@](C)(C(C)C)CC1=O` [Example 20] was tested. Which EC50 did it give?
Answer: 5.3 nM

Question: `CCC1(CC)CC(=O)N([C@@H](c2cccnc2)[C@H]2[C@H](C(=O)N[C@H]3C[C@H](C(F)(F)F)Oc4ccccc43)C2(C)C)C(=N)N1` [Example 44A] was tested. Which EC50 did it give?
Answer: 8.3 nM

Question: `COc1ccc([C@H]([C@@H]2C[C@H]2C(=O)N[C@@H]2c3ccccc3OC(C)(C)[C@H]2O)N2C(=N)NC(C)(C)CC2=O)cn1` [Example 39] was tested. Which EC50 did it give?
Answer: 10.1 nM

Question: For `CC1(C)CC(=O)N([C@H](c2cccnc2)[C@H]2[C@H](C(=O)N[C@H]3C[C@H](C(F)(F)F)Oc4ccccc43)C2(C)C)C(=N)N1` [Example 43A], which EC50 is on record?
Answer: 4 nM

Question: How did the EC50 turn out when `CCC1(CC)CC(=O)N(C[C@@H]2C[C@H]2C(=O)N[C@@H]2c3ccccc3C[C@H]2O)C(=N)N1` [Example 6B] was run?
Answer: 269 nM

Question: For `Cc1cc2c(cc1Cl)[C@@H](NC(=O)[C@@H]1C[C@H]1CN1C(=N)NC(C)(C)CC1=O)CC(C)(C)O2` [Example 136], which EC50 is on record?
Answer: 160 nM

Question: For `Cc1ccc2c(c1)[C@@H](NC(=O)[C@@H]1C[C@H]1CN1C(=N)NC(C)(C)CC1=O)CC(C)(C)O2` [Example 128], which EC50 is on record?
Answer: 280 nM

Question: How did the EC50 turn out when `CC1(C)CC(=O)N([C@H](c2cncc(Cl)c2)[C@@H]2C[C@H]2C(=O)N[C@H]2C[C@H](C(F)(F)F)Oc3ccccc32)C(=N)N1` [Example 60A] was run?
Answer: 0.5 nM

Question: `COCC[C@H]([C@@H]1C[C@H]1C(=O)N[C@H]1CC(C)(C)Oc2ccc(C(F)(F)F)cc21)N1C(=N)NC(C)(C)CC1=O` [Example 110B] was tested. Which EC50 did it give?
Answer: 7.2 nM

Question: How did the EC50 turn out when `CCC1(CC)CC(=O)N([C@@H](c2cccnc2)[C@@H]2C(C)[C@H]2C(=O)N[C@H]2CC(C)(C)Oc3ccccc32)C(=N)N1` (stereo partly drawn) [Example 56A] was run?
Answer: 65 nM

Question: Which EC50 does the source give for `Cc1ccc2c(c1)OC(C)(C)C[C@@H]2NC(=O)[C@@H]1C[C@H]1[C@@H](c1cccnc1)N1C(=N)NC(C)(C)CC1=O` [Example 85B] here?
Answer: 0.9 nM

Question: Which EC50 does the source give for `CCC1(CC)CC(=O)N(C[C@@H]2C(C)[C@H]2C(=O)N[C@@H]2c3ccccc3C[C@H]2O)C(=N)N1` (stereo partly drawn) [Example 33] here?
Answer: 76 nM

Question: `COc1cncc([C@H]([C@@H]2C[C@H]2C(=O)N[C@H]2CC(C)(C)Oc3ccccc32)N2C(=N)NC(C)(C)CC2=O)c1` [Example 40] was tested. Which EC50 did it give?
Answer: 3.1 nM

Question: Which EC50 does the source give for `CCC1(CC)CC(=O)N([C@H](CCOC)[C@@H]2C[C@H]2C(=O)N[C@@H]2c3ccccc3C[C@H]2O)C(=N)N1` [Example 13] here?
Answer: 24 nM

same assay, conditions: 72 h, 72 hours growth, LDH readout; Table 4 (unit inferred)

Question: How did the EC50 turn out when `CCC1(CC)CC(=O)N([C@H](CCOC)[C@@H]2C[C@H]2C(=O)N[C@H]2c3ccccc3OC(C)(C)[C@@H]2O)C(=N)N1` [Example 144] was run?
Answer: 165 nM

Question: For `CCC1(CC)CC(=O)N([C@H](CCOC)[C@@H]2C[C@H]2C(=O)NC2CC(C)(C)Oc3cccc(Cl)c32)C(=N)N1` (stereo partly drawn) [Example 149A], which EC50 is on record?
Answer: 1 nM

Question: For `CCC1(CC)CC(=O)N([C@H](CCOC)[C@@H]2C[C@H]2C(=O)N[C@@H]2c3cc(Cl)ccc3OC(C)(C)[C@H]2O)C(=N)N1` [Example 150], which EC50 is on record?
Answer: 3.9 nM

same assay, conditions: 72 hours growth, LDH readout; Table 3

Question: Which EC50 does the source give for `COCC1(C)CC(NC(=O)[C@@H]2C[C@H]2[C@@H](c2cccnc2)N2C(=N)NC(C)(C)CC2=O)c2ccccc2O1` (single isomer, unassigned) [Example 108C] here?
Answer: 6 nM

Question: Which EC50 does the source give for `CCC1C[C@H](NC(=O)[C@@H]2C[C@H]2CN2C(=N)NC(C)(C)CC2=O)c2ccccc2O1` (single isomer, unassigned) [Example 133A] here?
Answer: 210 nM

Question: `CC1(C)CC(=O)N([C@H](c2cccnc2)[C@@H]2C[C@H]2C(=O)NC2CC(C)(C)Oc3c(Cl)cccc32)C(=N)N1` (stereo partly drawn) [Example 121B] was tested. Which EC50 did it give?
Answer: 2 nM

Question: For `CCC1(CC)CC(=O)N(CC2C(C(=O)N[C@H]3CC(C)(C)Oc4ccccc43)C2(F)F)C(=N)N1` (single isomer, unassigned) [Example 16A], which EC50 is on record?
Answer: 33 nM

Question: `CCC1(CC)CC(=O)N(C[C@@H]2C(C)[C@H]2C(=O)N[C@@H]2c3ccccc3OCC2(C)O)C(=N)N1` (single isomer, unassigned) [Example 35B] was tested. Which EC50 did it give?
Answer: 220 nM

Question: For `CCC1(C)CC(NC(=O)[C@@H]2C[C@H]2[C@@H](CCOC)N2C(=N)NC(C)(C)CC2=O)c2ccccc2O1` (single isomer, unassigned) [Example 75C], which EC50 is on record?
Answer: 7 nM

Question: Which EC50 does the source give for `CCC1(CC)CC(=O)N(CC2CC2C(=O)N[C@H]2CCOc3ccccc32)C(=N)N1` (stereo partly drawn) [Example 4D] here?
Answer: 91 nM

Question: Which EC50 does the source give for `CC1(C)CC(=O)N([C@H](c2cccnc2)[C@@H]2C[C@H]2C(=O)NC2CC(C)(C)Oc3c(F)cccc32)C(=N)N1` (stereo partly drawn) [Example 93B] here?
Answer: 2.4 nM

Question: `CC1(C)CC(=O)N(C(c2cccnc2)[C@H]2[C@H](C(=O)N[C@H]3CC(C)(C)Oc4ccccc43)C2(C)C)C(=N)N1` (stereo partly drawn) [Example 49B] was tested. Which EC50 did it give?
Answer: 14 nM

Question: For `CC[C@]1(C)CC(=O)N(C(c2cncc(F)c2)[C@@H]2C[C@H]2C(=O)NC2c3ccccc3OC(C(F)(F)F)C2O)C(=N)N1` (single isomer, unassigned) [Example 104B], which EC50 is on record?
Answer: 22 nM

Question: For `CCC1(C)CC(NC(=O)[C@@H]2C[C@H]2[C@@H](c2cccnc2)N2C(=N)NC(C)(C)CC2=O)c2ccccc2O1` (single isomer, unassigned) [Example 105C], which EC50 is on record?
Answer: 0.8 nM

Question: How did the EC50 turn out when `CCC1(CC)CC(=O)N(C[C@@H]2C(C)[C@H]2C(=O)NC2c3ccccc3OC2(C)C)C(=N)N1` (stereo partly drawn) [Example 36B] was run?
Answer: 301 nM

Question: For `CC(C)C1(C)CC(NC(=O)[C@@H]2C[C@H]2CN2C(=N)NC(C)(C)CC2=O)c2ccccc2O1` (single isomer, unassigned) [Example 79C], which EC50 is on record?
Answer: 289 nM

Question: `CC[C@]1(C)CC(=O)N([C@H](CCOC)[C@@H]2C[C@H]2C(=O)NC2CC(C)(C)Oc3ccc(F)cc32)C(=N)N1` (single isomer, unassigned) [Example 130A] was tested. Which EC50 did it give?
Answer: 0.9 nM

Question: Which EC50 does the source give for `CCC1(CC)CC(=O)N(CC2C(C(=O)N[C@H]3C[C@H](C(F)(F)F)Oc4ccccc43)C2(F)F)C(=N)N1` (single isomer, unassigned) [Example 17A] here?
Answer: 47 nM

Question: How did the EC50 turn out when `CCC1(C)CC(NC(=O)[C@@H]2C[C@H]2[C@@H](c2cccnc2)N2C(=N)NC(C)(C)CC2=O)c2ccccc2O1` (single isomer, unassigned) [Example 105A] was run?
Answer: 0.9 nM

same assay, conditions: 72 hours growth, LDH readout; Table 4 (unit inferred)

Question: How did the EC50 turn out when `CCC1(CC)CC(=O)N(C(CC(C)OC)[C@@H]2C[C@H]2C(=O)N[C@H]2CC(C)(C)Oc3ccccc32)C(=N)N1` (single isomer, unassigned) [Example 142A] was run?
Answer: 1.9 nM

Source: patent publication US12338219B2, “Antimalarial agents” (Merck Sharp & Dohme LLC, priority 2019, dated 2025)
